The target of test [1] is T1, UCP2 (murine, residues 14-309) (Mus musculus, UniProt P70406).
T1 sequence (P70406 14-309): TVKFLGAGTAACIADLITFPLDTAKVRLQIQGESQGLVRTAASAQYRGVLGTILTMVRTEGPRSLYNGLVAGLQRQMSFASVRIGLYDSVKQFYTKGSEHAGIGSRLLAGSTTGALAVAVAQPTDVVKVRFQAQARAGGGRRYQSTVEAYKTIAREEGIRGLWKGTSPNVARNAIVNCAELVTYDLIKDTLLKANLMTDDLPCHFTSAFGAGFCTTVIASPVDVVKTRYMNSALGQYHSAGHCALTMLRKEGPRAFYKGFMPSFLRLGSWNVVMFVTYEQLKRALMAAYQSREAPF
Nature of the test: NMR titration, chemical shift perturbation. The class given is binding.

Test [2] deals with T1, UCP2 (murine, residues 14-309). Nature of the test: proteoliposome ASO− flipping assay. The settings on record: read-out: % inhibition at 100 μM. It is filed as biochemical.

As for `CCCCCCCCCCCCCCCC(=O)O` [C16-FA], the Kd in test [1] was 600 ± 200 µM.
As to `Nc1nc2c(ncn2[C@@H]2O[C@H](COP(=O)(O)OP(=O)(O)O)[C@@H](O)[C@H]2O)c(=O)[nH]1` [GDP], the inhibition at 100 µM in test [2] is about 95%.

These data come from PMC4156518 (Cell metabolism, 2014).
